What was measured:
[1] = test system: Lone star tick larvae (Amblyomma americanum); assay: Larval immersion microassay against larval-stage Lone star ticks; conditions: Amblyomma americanum, 24 h, read-out: activity (percent larval mortality)
Method: The larval immersion microassay was conducted as described in detail in White, et al., J. Med. Entomol. […] Compounds of the invention were formulated in dimethylsulfoxide (DMSO) to prepare a stock solution at a concentration of at least 10 mM. […] Approximately 30-50 Lone star tick larvae (Amblyomma americanum) were submerged into each well containing compounds. After a 30 minute immersion period, larvae were removed with a wide-bore pipette tip in 0.05 ml of fluid, dispensed into a commercial paper tissue biopsy bag which was sealed at the top with a plastic dialysis clip, inverted and allowed to air dry for 60 minutes. Bags containing larvae were then incubated at approximately 27 degrees Celsius and >90% relative humidity. After 24 hours, bags were opened, live and dead larvae were counted and percent larval mortality was calculated.
7 contains one chiral center, and is therefore a racemic mixture comprised of approximately 50% R- and 50% S-enantiomer. In vitro and surrogate animal (rat) studies were conducted to evaluate the biological activity of the R- and S-enantiomers of 7. For the in vitro study, larvae of the Lone star tick (Amblyomma americanum) were exposed to 17 (S-enantiomer) and 18 (R-enantiomer) using the larval immersion microassay at a concentration of no greater than 0.3 mM. Following exposure, larvae were removed, transferred to a tissue biopsy bag and incubated at approximately 27 degrees Celsius and >90% relative humidity. After 24 hours, biopsy bags were opened and the numbers of live and dead larvae were determined.

[2] = test system: cat flea (Ctenocephalides felis); assay: Example 4: efficacy against cat flea infestations on dogs; assay type: in vivo; conditions: 25 mg/kg oral, solid dosage form, Day 32
Method: The therapeutic (knockdown) and residual efficacy of 7, administered orally at a point dosages of 5 and 25 mg/kg bodyweight, was evaluated against adult American dog tick (D. variabilis) and cat flea (C. felis) infestations on dogs. Sixteen (16) male and female beagle dogs were allocated to one of four treatment groups: Untreated control group (n=4 dogs); 7, 5 mg/kg liquid oral dosage form (n=4 dogs); 7, 25 mg/kg liquid oral dosage form (n=4 dogs); and 7, 25 mg/kg solid oral dosage form. Liquid dosage forms were prepared by dissolving 7 in a solution of 55% polyethylene glycol-300, 35% propylene glycol and 10% water at 25 mg/ml. Solid oral dosage form was prepared by thoroughly mixing 7 with microcrystalline cellulose and croscarmellose sodium (50:47:3, w/w) and placing into size 00 gelatin capsules. On Day 0, all dogs were orally administered 7 at the prescribed point dosages. […]
The total number of live ticks or fleas (normal plus moribund classification) present on each dog was determined for each interval, and this number was transformed using the natural logarithm transformation plus one (Ln count+1); addition of one to each count served to adjust for counts that were zero. […] GM percent efficacy of treatments was calculated using the following formula: […]

[3] = test system: adult American dog tick (Dermacentor variabilis); assay: Example 5: efficacy against adult American dog tick infestations on dogs; assay type: in vivo
Method: (§1) The therapeutic (knockdown) and residual efficacy of 7 and 8, each administered orally at a point dose of either 25 mg/kg or 50 mg/kg bodyweight, was evaluated against adult tick (Dermacentor variabilis and Rhipicephalus sanguineus) infestations on dogs. Twenty (20) male and female beagle dogs were allocated to one of five treatment groups, four (4) dogs per group: Untreated control; 7, 25 mg/kg; 7, 50 mg/kg; 8, 25 mg/kg; and 8, 50 mg/kg. On Day −1, all dogs were infested with approximately 50 unfed, adult D. variabilis ticks. On Day 0, dogs were orally administered gelatin capsules containing either 7 or 8 (50% technical active, 47% microcrystalline cellulose and 3% croscarmellose sodium, w/w) so as to achieve the desired point dosages. Ticks were counted and classified on all dogs, but not removed, on Day 1 (approximately 24 hours after treatment). On Day 2, approximately 48 hours after treatment, ticks were counted, classified and removed. Dogs were re-infested with the same number of D. variabilis ticks on Days 5, 12 and 19 with corresponding 48 hour post-infestation tick counts on Days 7, 14 and 21. Dogs were infested with approximately 50 unfed, adult brown dog ticks (Rhipicephalus sanguineus; approximately 50% male and 50% female) on Days 15 and 28, with corresponding 48 hour post-infestation tick counts on Days 17 and 30. GM percent efficacy of treatments against both tick species was calculated using the following formula: […]

[4] = test system: brown dog tick (Rhipicephalus sanguineus); assay: Example 5: efficacy against brown dog tick infestations on dogs; assay type: in vivo
Method: as §1

CC1(C)OB(O)c2ccc(C3=NOC(c4cc(Cl)c(Cl)c(Cl)c4)(C(F)(F)F)C3)cc21 (racemic) [Compound 7, 3,3-Dimethyl-5-(5-(3,4,5-trichlorophenyl)-5-(trifluoromethyl)-4,5-dihydroisoxazol-3-yl)benzo[c][1,2]oxaborol-1(3H)-ol]
mortality at 300 µM [1]: ≥ 80%
Geometric mean group live flea count [2]: 3.9
% efficacy ([3]; 25 mg/kg oral capsule, Day 1): (90.4) %
Geometric mean group live tick count ([3]; 25 mg/kg oral capsule, Day 1): 1.0
Geometric mean group live tick count ([3]; 25 mg/kg oral capsule, Day 2): 0.0
Geometric mean group live tick count ([3]; 25 mg/kg oral capsule, Day 7): 0.7
% efficacy ([3]; 25 mg/kg oral capsule, Day 14): (67.6) %
Geometric mean group live tick count ([3]; 25 mg/kg oral capsule, Day 14): 5.3
% efficacy ([3]; 25 mg/kg oral capsule, Day 21): (71.1) %
Geometric mean group live tick count ([3]; 25 mg/kg oral capsule, Day 21): 4.7
% efficacy ([3]; 50 mg/kg oral capsule, Day 1): (83.0) %
Geometric mean group live tick count ([3]; 50 mg/kg oral capsule, Day 1): 1.8
Geometric mean group live tick count ([3]; 50 mg/kg oral capsule, Day 2): 0.0
Geometric mean group live tick count ([3]; 50 mg/kg oral capsule, Day 7): 0.4
% efficacy ([3]; 50 mg/kg oral capsule, Day 14): (88.5) %
Geometric mean group live tick count ([3]; 50 mg/kg oral capsule, Day 14): 1.9
% efficacy ([3]; 50 mg/kg oral capsule, Day 21): (80.1) %
Geometric mean group live tick count ([3]; 50 mg/kg oral capsule, Day 21): 3.2
% efficacy ([4]; 25 mg/kg oral capsule, Day 17): (75.0) %
Geometric mean group live tick count ([4]; 25 mg/kg oral capsule, Day 17): 8.0
Geometric mean group live tick count ([4]; 50 mg/kg oral capsule, Day 17): 1.6
% efficacy ([4]; 50 mg/kg oral capsule, Day 30): (63.9) %
Geometric mean group live tick count ([4]; 50 mg/kg oral capsule, Day 30): 13.4
